{"source": "paper PMC5218480", "about": "(PLoS ONE, 2017)", "tested_on": "MV-4-11 cells", "assay": "Gene expression microarray analysis (Affymetrix PrimeView) and GSEA", "format": "cell-based, human", "parameters": "RFU PODN (11730768_x_at) / Fold change /veh PODN (11730768_x_at) / RFU LINC00158 (11744669_a_at) / Fold change /veh LINC00158 (11744669_a_at) / RFU DUSP10 (11751237_a_at) / Fold change /veh DUSP10 (11751237_a_at) / RFU ID3 (11757404_x_at) / Fold change /veh ID3 (11757404_x_at) / RFU PLEKHG5 (11737974_s_at) / Fold change /veh PLEKHG5 (11737974_s_at) / RFU LRRC4B (11730491_at) / Fold change /veh LRRC4B (11730491_at) / RFU GIMAP4 (11747438_a_at) / Fold change /veh GIMAP4 (11747438_a_at) / RFU KRT8 (11758183_x_at) / Fold change /veh KRT8 (11758183_x_at) / RFU CNN1 (11734310_a_at) / Fold change /veh CNN1 (11734310_a_at) / RFU VPS37D (11726825_at) / Fold change /veh VPS37D (11726825_at) / RFU C10orf10 (11716522_x_at) / Fold change /veh C10orf10 (11716522_x_at) / RFU KIR2DL2 /// KIR2DL4 /// KIR2DL5A /// KIR2DL5B /// KIR2DS1 /// KIR2DS2 /// KIR2DS3 /// KIR2DS4 /// KIR3DL3 /// KIR3DL3 /// KIR3DS1 (11738374_at) / Fold change /veh KIR2DL2 /// KIR2DL4 /// KIR2DL5A /// KIR2DL5B /// KIR2DS1 /// KIR2DS2 /// KIR2DS3 /// KIR2DS4 /// KIR3DL3 /// KIR3DL3 /// KIR3DS1 (11738374_at) / RFU C1QL1 (11718748_at) / Fold change /veh C1QL1 (11718748_at) / RFU TMPRSS4 (11747572_a_at) / Fold change /veh TMPRSS4 (11747572_a_at) / RFU HAMP (11756126_x_at) / Fold change /veh HAMP (11756126_x_at) / RFU RNFT2 (11725882_a_at) / Fold change /veh RNFT2 (11725882_a_at) / RFU NR4A2 (11747474_a_at) / Fold change /veh NR4A2 (11747474_a_at) / RFU ABCC12 (11746883_a_at) / Fold change /veh ABCC12 (11746883_a_at) / RFU TMEM136 (11760407_x_at) / Fold change /veh TMEM136 (11760407_x_at) / RFU CLDN22 /// WWC2 (11732394_at) / Fold change /veh CLDN22 /// WWC2 (11732394_at) / RFU HLA-DPB1 (11760878_x_at) / Fold change /veh HLA-DPB1 (11760878_x_at) / RFU SPINT1 (11716480_a_at) / Fold change /veh SPINT1 (11716480_a_at) / RFU GAP43 (11754022_s_at) / Fold change /veh GAP43 (11754022_s_at) / RFU A4GNT (11735810_at) / Fold change /veh A4GNT (11735810_at) / RFU PRB3 (11715151_x_at) / Fold change /veh PRB3 (11715151_x_at) / RFU TUBB4B (11761932_at) / Fold change /veh TUBB4B (11761932_at) / RFU CAPN14 (11732068_a_at) / Fold change /veh CAPN14 (11732068_a_at) / RFU TMCC2 (11721928_a_at) / Fold change /veh TMCC2 (11721928_a_at) / RFU IRGQ (11745062_a_at) / Fold change /veh IRGQ (11745062_a_at) / RFU FAM174B (11720279_a_at) / Fold change /veh FAM174B (11720279_a_at) / RFU TMPRSS4 (11748680_a_at) / Fold change /veh TMPRSS4 (11748680_a_at) / RFU FAM212B (11763350_a_at) / Fold change /veh FAM212B (11763350_a_at) / RFU PLEKHG5 (11743358_a_at) / Fold change /veh PLEKHG5 (11743358_a_at) / RFU ZSCAN30 (11745921_a_at) / Fold change /veh ZSCAN30 (11745921_a_at) / RFU CMKLR1 (11741424_a_at) / Fold change /veh CMKLR1 (11741424_a_at) / RFU LOC101060620 /// MAPK8IP1 (11723275_at) / Fold change /veh LOC101060620 /// MAPK8IP1 (11723275_at) / RFU SPTSSB (11747773_x_at) / Fold change /veh SPTSSB (11747773_x_at) / RFU PRSS12 (11739890_at) / Fold change /veh PRSS12 (11739890_at) / RFU BIN1 (11741810_x_at) / Fold change /veh BIN1 (11741810_x_at) / RFU WNT11 (11732464_a_at) / Fold change /veh WNT11 (11732464_a_at) / RFU C10orf10 (11716521_a_at) / Fold change /veh C10orf10 (11716521_a_at) / RFU C5orf56 (11738089_at) / Fold change /veh C5orf56 (11738089_at) / RFU CYB561 (11721691_x_at) / Fold change /veh CYB561 (11721691_x_at) / RFU ANKRD19P (11752326_a_at) / Fold change /veh ANKRD19P (11752326_a_at) / RFU OR2T12 /// OR2T33 /// OR2T8 (11738714_s_at) / Fold change /veh OR2T12 /// OR2T33 /// OR2T8 (11738714_s_at) / RFU VCAN (11748164_a_at) / Fold change /veh VCAN (11748164_a_at) / RFU JSRP1 (11732532_at) / Fold change /veh JSRP1 (11732532_at) / RFU KRTAP10-11 (11738290_x_at) / Fold change /veh KRTAP10-11 (11738290_x_at) / RFU MYO3A (11730013_a_at) / Fold change /veh MYO3A (11730013_a_at) / RFU EBF3 (11725865_a_at) / Fold change /veh EBF3 (11725865_a_at) / RFU CAMK2N1 (11719241_x_at) / Fold change /veh CAMK2N1 (11719241_x_at) / RFU C5orf56 (11738088_a_at) / Fold change /veh C5orf56 (11738088_a_at) / RFU OLFML3 (11715873_a_at) / Fold change /veh OLFML3 (11715873_a_at) / RFU LOC100653217 /// NTM (11731650_a_at) / Fold change /veh LOC100653217 /// NTM (11731650_a_at) / RFU MAPK11 (11762145_a_at) / Fold change /veh MAPK11 (11762145_a_at) / RFU FIZ1 (11724087_x_at) / Fold change /veh FIZ1 (11724087_x_at) / RFU OASL (11726364_x_at) / Fold change /veh OASL (11726364_x_at) / RFU SOX15 (11748057_x_at) / Fold change /veh SOX15 (11748057_x_at) / RFU CD79A (11719716_a_at) / Fold change /veh CD79A (11719716_a_at) / RFU HIST1H1D (11736915_at) / Fold change /veh HIST1H1D (11736915_at) / RFU CASKIN2 (11723855_a_at) / Fold change /veh CASKIN2 (11723855_a_at) / RFU LOC730098 (11760151_x_at) / Fold change /veh LOC730098 (11760151_x_at) / RFU OR4N2 (11742367_at) / Fold change /veh OR4N2 (11742367_at) / RFU PRRT2 (11749266_a_at) / Fold change /veh PRRT2 (11749266_a_at) / RFU SNX32 (11753110_a_at) / Fold change /veh SNX32 (11753110_a_at) / RFU CDHR5 (11726645_a_at) / Fold change /veh CDHR5 (11726645_a_at) / RFU RCAN1 (11760418_a_at) / Fold change /veh RCAN1 (11760418_a_at) / RFU FAM167A (11723789_a_at) / Fold change /veh FAM167A (11723789_a_at) / RFU FAM26E (11764081_at) / Fold change /veh FAM26E (11764081_at) / RFU ISYNA1 (11749810_s_at) / Fold change /veh ISYNA1 (11749810_s_at) / RFU ACY1 (11761880_at) / Fold change /veh ACY1 (11761880_at) / RFU 11764098_at / Fold change /veh 11764098_at / RFU SAMD14 (11745864_x_at) / Fold change /veh SAMD14 (11745864_x_at) / RFU NPB (11741838_a_at) / Fold change /veh NPB (11741838_a_at) / RFU TMPRSS6 (11731388_a_at) / Fold change /veh TMPRSS6 (11731388_a_at) / RFU KRTAP10-2 (11738614_at) / Fold change /veh KRTAP10-2 (11738614_at) / RFU ARHGAP8 /// PRR5-ARHGAP8 (11727945_x_at) / Fold change /veh ARHGAP8 /// PRR5-ARHGAP8 (11727945_x_at) / RFU KRTAP5-7 /// NADSYN1 (11734609_at) / Fold change /veh KRTAP5-7 /// NADSYN1 (11734609_at) / RFU RASL12 (11751679_a_at) / Fold change /veh RASL12 (11751679_a_at) / RFU CDKN2B (11736163_a_at) / Fold change /veh CDKN2B (11736163_a_at) / RFU PRF1 (11729649_at) / Fold change /veh PRF1 (11729649_at) / RFU, ZNF638 /// ZNF638-IT1 / Fold change vs veh, ZNF638 /// ZNF638-IT1 / RFU, PANK3 / Fold change vs veh, PANK3 / RFU, SH3YL1 / Fold change vs veh, SH3YL1 / RFU, ZEB2 / Fold change vs veh, ZEB2 / RFU, NRIP1 / Fold change vs veh, NRIP1 / RFU, PTTG1IP / Fold change vs veh, PTTG1IP / RFU, CAPN2 / Fold change vs veh, CAPN2 / RFU, MED14 / Fold change vs veh, MED14 / RFU, SNORA58 / Fold change vs veh, SNORA58 / RFU, C1orf63 / Fold change vs veh, C1orf63 / RFU, LRRFIP1 / Fold change vs veh, LRRFIP1 / RFU, NDUFAF7 / Fold change vs veh, NDUFAF7 / RFU, SLC12A2 / Fold change vs veh, SLC12A2 / RFU, IBTK / Fold change vs veh, IBTK / RFU, ESF1 / Fold change vs veh, ESF1 / Fold change vs veh, TMEM50B / RFU, TAOK1 / Fold change vs veh, TAOK1 / RFU, ACBD3 / Fold change vs veh, ACBD3 / RFU, TMA16 / Fold change vs veh, TMA16 / RFU, RWDD3 / Fold change vs veh, RWDD3 / RFU, BCAT1 / Fold change vs veh, BCAT1 / RFU, EDEM3 / Fold change vs veh, EDEM3 / RFU, TMEM33 / Fold change vs veh, TMEM33 / RFU, WDR75 / Fold change vs veh, WDR75 / RFU, AHCTF1 / Fold change vs veh, AHCTF1 / RFU, TFRC / Fold change vs veh, TFRC / RFU, ZDHHC17 / Fold change vs veh, ZDHHC17 / RFU, NOM1 / Fold change vs veh, NOM1 / RFU, ARL8B / Fold change vs veh, ARL8B / RFU, ZBTB11 / Fold change vs veh, ZBTB11 / RFU, TAMM41 / Fold change vs veh, TAMM41 / RFU, KIAA1704 /// LOC100996395 / Fold change vs veh, KIAA1704 /// LOC100996395 / RFU, ING1 / Fold change vs veh, ING1 / RFU, TRMT61B / Fold change vs veh, TRMT61B / RFU, FUBP3 / Fold change vs veh, FUBP3 / RFU, TP53 / Fold change vs veh, TP53 / RFU, TNKS2 / Fold change vs veh, TNKS2 / RFU, ZFP14 / Fold change vs veh, ZFP14 / RFU, ACTR2 / Fold change vs veh, ACTR2 / RFU, PPP3R1 / Fold change vs veh, PPP3R1 / RFU, PIK3R1 / Fold change vs veh, PIK3R1 / RFU, HNRNPA1 / Fold change vs veh, HNRNPA1 / RFU, RNF170 / Fold change vs veh, RNF170 / RFU, ZNF28 / Fold change vs veh, ZNF28 / RFU, RNGTT / Fold change vs veh, RNGTT / RFU, OGT / Fold change vs veh, OGT / RFU, BRD1 / Fold change vs veh, BRD1 / RFU, MARS / Fold change vs veh, MARS / RFU, ZNF655 / Fold change vs veh, ZNF655 / RFU, FAHD1 / Fold change vs veh, FAHD1 / RFU, BDP1 / Fold change vs veh, BDP1 / RFU, LRRCC1 / Fold change vs veh, LRRCC1 / RFU, ARID1A / Fold change vs veh, ARID1A / RFU, ZNF146 / Fold change vs veh, ZNF146 / RFU, ZNF330 / Fold change vs veh, ZNF330 / RFU, GPN3 / Fold change vs veh, GPN3 / RFU, C9orf123 / Fold change vs veh, C9orf123 / RFU, N4BP2L2 / Fold change vs veh, N4BP2L2 / RFU, ARFIP1 / Fold change vs veh, ARFIP1 / RFU, FAM179B / Fold change vs veh, FAM179B / RFU, BCL10 / Fold change vs veh, BCL10 / RFU, UHRF1BP1L / Fold change vs veh, UHRF1BP1L / RFU, BET1 / Fold change vs veh, BET1 / RFU, CNOT2 / Fold change vs veh, CNOT2 / RFU, ZNF268 / Fold change vs veh, ZNF268 / Fold change vs veh, ZNF507 / RFU, DGCR2 / Fold change vs veh, DGCR2 / RFU, WDSUB1 / Fold change vs veh, WDSUB1 / Fold change vs veh, HSP90B1 /// MIR3652 / RFU, ADSS / Fold change vs veh, ADSS / RFU, GK / Fold change vs veh, GK / RFU, ZNF148 / Fold change vs veh, ZNF148 / RFU, TAF9 / Fold change vs veh, TAF9 / RFU, SLC1A5 / Fold change vs veh, SLC1A5 / RFU, SLMO2 / Fold change vs veh, SLMO2 / RFU, ABCC4 / Fold change vs veh, ABCC4 / RFU, LOC101060439 /// RAP1B / Fold change vs veh, LOC101060439 /// RAP1B / RFU, RFX7 / Fold change vs veh, RFX7 / RFU, GTPBP10 / Fold change vs veh, GTPBP10 / RFU, CNEP1R1 / Fold change vs veh, CNEP1R1 / RFU, BIVM-ERCC5 /// ERCC5 / Fold change vs veh, BIVM-ERCC5 /// ERCC5 / RFU, ILF3 / Fold change vs veh, ILF3 / RFU 11762660_at / Fold change /veh 11762660_at / RFU VCAN (11757783_s_at) / Fold change /veh VCAN (11757783_s_at) / RFU DDX43 (11728927_at) / Fold change /veh DDX43 (11728927_at) / RFU KRT8 (11758188_x_at) / Fold change /veh KRT8 (11758188_x_at) / RFU NKD1 (11759106_at) / Fold change /veh NKD1 (11759106_at) / RFU SRD5A1 (11742802_a_at) / Fold change /veh SRD5A1 (11742802_a_at) / RFU TPSAB1 /// TPSB2 (11721975_s_at) / Fold change /veh TPSAB1 /// TPSB2 (11721975_s_at) / RFU GSTM3 (11746129_a_at) / Fold change /veh GSTM3 (11746129_a_at) / RFU IL23R (11737362_x_at) / Fold change /veh IL23R (11737362_x_at) / RFU TMEM51 (11727254_a_at) / Fold change /veh TMEM51 (11727254_a_at) / RFU PIWIL2 (11732686_x_at) / Fold change /veh PIWIL2 (11732686_x_at) / RFU ORM1 (11744905_x_at) / Fold change /veh ORM1 (11744905_x_at) / RFU CCDC152 (11743942_at) / Fold change /veh CCDC152 (11743942_at) / RFU ECM1 (11717891_a_at) / Fold change /veh ECM1 (11717891_a_at) / RFU IL23R (11748794_a_at) / Fold change /veh IL23R (11748794_a_at) / RFU TNFAIP8L3 (11732012_x_at) / Fold change /veh TNFAIP8L3 (11732012_x_at) / RFU MBOAT4 (11741988_at) / Fold change /veh MBOAT4 (11741988_at) / RFU 11764193_at / Fold change /veh 11764193_at / RFU TMEM53 (11763286_at) / Fold change /veh TMEM53 (11763286_at) / RFU MAGEB2 (11727129_at) / Fold change /veh MAGEB2 (11727129_at) / RFU TMEM200A (11744735_a_at) / Fold change /veh TMEM200A (11744735_a_at) / RFU CCDC152 (11751479_a_at) / Fold change /veh CCDC152 (11751479_a_at) / RFU FAM211A (11726209_a_at) / Fold change /veh FAM211A (11726209_a_at) / RFU RGS16 (11746705_a_at) / Fold change /veh RGS16 (11746705_a_at) / RFU VCAN (11755009_s_at) / Fold change /veh VCAN (11755009_s_at) / RFU RHOB (11743442_s_at) / Fold change /veh RHOB (11743442_s_at) / RFU RGS16 (11720943_a_at) / Fold change /veh RGS16 (11720943_a_at) / RFU RGS16 (11720944_at) / Fold change /veh RGS16 (11720944_at) / RFU, VPS4B / Fold change vs veh, VPS4B / RFU, CREB1 / Fold change vs veh, CREB1 / RFU, DNAJC13 / Fold change vs veh, DNAJC13 / RFU, GNAQ / Fold change vs veh, GNAQ / RFU, CDK5R1 / Fold change vs veh, CDK5R1 / RFU, ZRANB3 / Fold change vs veh, ZRANB3 / RFU, CUL4A / Fold change vs veh, CUL4A / RFU, CCNY / Fold change vs veh, CCNY / RFU, UFL1 / Fold change vs veh, UFL1 / RFU, COG3 / Fold change vs veh, COG3 / RFU, DIAPH2 / Fold change vs veh, DIAPH2 / RFU, SKA2 / Fold change vs veh, SKA2 / RFU, AFF3 / Fold change vs veh, AFF3 / RFU, LMF1 / Fold change vs veh, LMF1 / RFU, IPO11 / Fold change vs veh, IPO11 / RFU, DFFB / Fold change vs veh, DFFB / RFU, FOXP1 / Fold change vs veh, FOXP1 / RFU, CARD8 / Fold change vs veh, CARD8 / RFU, STRN3 / Fold change vs veh, STRN3 / RFU, ADK / Fold change vs veh, ADK / RFU, RASSF2 / Fold change vs veh, RASSF2 / RFU, WIPF1 / Fold change vs veh, WIPF1 / RFU, LARP1B / Fold change vs veh, LARP1B / RFU, RASA1 / Fold change vs veh, RASA1 / RFU, RB1 / Fold change vs veh, RB1 / RFU, PPFIA1 / Fold change vs veh, PPFIA1 / RFU, MAT2A / Fold change vs veh, MAT2A / RFU, CCT5 / Fold change vs veh, CCT5 / RFU, WDR92 / Fold change vs veh, WDR92 / RFU, CUX1 / Fold change vs veh, CUX1 / RFU, TTC7A / Fold change vs veh, TTC7A / RFU, TMEM135 / Fold change vs veh, TMEM135 / RFU, DEPTOR / Fold change vs veh, DEPTOR / RFU, CPM / Fold change vs veh, CPM / RFU, DNAJB6 / Fold change vs veh, DNAJB6 / RFU, CACNA2D3 / Fold change vs veh, CACNA2D3 / RFU, DTX4 / Fold change vs veh, DTX4 / RFU, TFCP2 / Fold change vs veh, TFCP2 / RFU, GMCL1 /// GMCL1P1 / Fold change vs veh, GMCL1 /// GMCL1P1 / RFU, AEBP2 / Fold change vs veh, AEBP2 / RFU, SNHG1 /// SNORD22 /// SNORD25 /// SNORD26 /// SNORD27 /// SNORD28 /// SNORD29 /// SNORD31 / Fold change vs veh, SNHG1 /// SNORD22 /// SNORD25 /// SNORD26 /// SNORD27 /// SNORD28 /// SNORD29 /// SNORD31 / Fold change (Aza/veh), C12orf56 (ProbeSet 11735607_a_at) / Fold change (ACY-1035/veh), C12orf56 (ProbeSet 11735607_a_at) / Fold change (Aza/veh), FGFR1OP (ProbeSet 11751329_s_at) / Fold change (ACY-1035/veh), FGFR1OP (ProbeSet 11751329_s_at) / Fold change (Aza/veh), VPS36 (ProbeSet 11739960_a_at) / Fold change (ACY-1035/veh), VPS36 (ProbeSet 11739960_a_at) / RFU SYPL1 (11715823_x_at) / Fold change /veh SYPL1 (11715823_x_at) / RFU IGFBP7 (11715501_s_at) / Fold change /veh IGFBP7 (11715501_s_at) / RFU REEP3 (11722064_at) / Fold change /veh REEP3 (11722064_at) / RFU IGLL1 (11728026_x_at) / Fold change /veh IGLL1 (11728026_x_at): dose or concentration left out as unconfirmed", "details": "MV-4-11 cells, 48 hours"}
{"smiles": "Nc1ccc(-c2cccs2)cc1NC(=O)c1ccc2c(c1)cc(C1CC1)n2CCN1CCOCC1", "note": "[ACY-1035]", "values": [{"measurement": "Fold change /veh ORM1 (11744905_x_at)", "value": 1.11}]}
